From the SangsterLogP compilation

A logP of 4.23 was found for `O=C1c2c(O)cccc2C(=CNCc2ccccc2)c2cccc(O)c21` in this work. A logP of 4.01 was found for `O=C1c2c(O)cccc2C(=CNc2ccc(O)cc2)c2cccc(O)c21` in this work. A logP of 4.37 was found for `COc1ccccc1NC=C1c2cccc(O)c2C(=O)c2c(O)cccc21` in this work. A logP of 5.19 was found for `O=C1c2c(O)cccc2C(=CNc2ccc(Br)cc2)c2cccc(O)c21` in this work. A logP of 5.06 was found for `O=C1c2c(O)cccc2C(=CNc2ccc(Cl)cc2)c2cccc(O)c21` in this work. A logP of 3.55 was found for `CNC=C1c2cccc(O)c2C(=O)c2c(O)cccc21` in this work. A logP of 4.96 was found for `O=C1c2c(O)cccc2C(=CNc2ccccc2)c2cccc(O)c21` in this work. A logP of 4.64 was found for `O=C1c2c(O)cccc2C(=CNc2ccc(F)cc2)c2cccc(O)c21` in this work. A logP of 5.07 was found for `CN(C=C1c2cccc(O)c2C(=O)c2c(O)cccc21)c1ccccc1` in this work. A logP of 4.9 was found for `COc1ccc(NC=C2c3cccc(O)c3C(=O)c3c(O)cccc32)cc1` in this work. A logP of 4.7 was found for `O=C1c2c(O)cccc2C(=CNc2ccc([N+](=O)[O-])cc2)c2cccc(O)c21` in this work. A logP of 4.74 was found for `O=C1c2c(O)cccc2C(=CNc2ccc3c(c2)OCO3)c2cccc(O)c21` in this work. A logP of 4.37 was found for `COc1ccc(NC=C2c3cccc(O)c3C(=O)c3c(O)cccc32)cc1OC` in this work.
